In one data set the target is Aurora kinase B (Homo sapiens, UniProt Q96GD4). The experiment in a line: Inhibition of Aurora B.
Data set [1] concerns the target Rho-associated protein kinase 2 (Homo sapiens, UniProt O75116). Description: Inhibition of ROCK2.
Data set [2] addresses T1, Inhibitor of nuclear factor kappa-B kinase subunit beta (Homo sapiens, UniProt O14920).
T1 sequence (O14920 whole entry): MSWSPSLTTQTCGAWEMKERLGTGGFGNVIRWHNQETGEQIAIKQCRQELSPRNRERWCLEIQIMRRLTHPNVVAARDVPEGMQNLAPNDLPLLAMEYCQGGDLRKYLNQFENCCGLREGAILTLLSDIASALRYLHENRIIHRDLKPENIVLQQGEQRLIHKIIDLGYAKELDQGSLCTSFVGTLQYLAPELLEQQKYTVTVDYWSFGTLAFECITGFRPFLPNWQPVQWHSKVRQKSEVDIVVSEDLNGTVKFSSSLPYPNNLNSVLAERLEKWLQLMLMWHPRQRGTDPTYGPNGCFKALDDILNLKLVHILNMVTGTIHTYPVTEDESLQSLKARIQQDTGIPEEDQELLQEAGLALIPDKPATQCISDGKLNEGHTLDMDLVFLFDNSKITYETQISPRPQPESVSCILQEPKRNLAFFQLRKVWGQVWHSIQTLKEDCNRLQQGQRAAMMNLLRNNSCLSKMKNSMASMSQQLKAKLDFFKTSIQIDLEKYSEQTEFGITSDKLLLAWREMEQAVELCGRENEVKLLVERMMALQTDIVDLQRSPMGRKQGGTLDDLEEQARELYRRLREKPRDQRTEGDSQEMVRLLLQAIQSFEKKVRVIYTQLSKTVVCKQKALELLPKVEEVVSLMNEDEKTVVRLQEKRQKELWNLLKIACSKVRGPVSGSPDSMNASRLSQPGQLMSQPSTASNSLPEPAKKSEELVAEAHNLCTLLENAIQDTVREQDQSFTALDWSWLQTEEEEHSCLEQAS
Description: Inhibition of IKK-beta.

Data set [3] deals with T2, Calcium/calmodulin-dependent protein kinase type IV (Homo sapiens, UniProt Q16566).
T2 sequence (Q16566 whole entry): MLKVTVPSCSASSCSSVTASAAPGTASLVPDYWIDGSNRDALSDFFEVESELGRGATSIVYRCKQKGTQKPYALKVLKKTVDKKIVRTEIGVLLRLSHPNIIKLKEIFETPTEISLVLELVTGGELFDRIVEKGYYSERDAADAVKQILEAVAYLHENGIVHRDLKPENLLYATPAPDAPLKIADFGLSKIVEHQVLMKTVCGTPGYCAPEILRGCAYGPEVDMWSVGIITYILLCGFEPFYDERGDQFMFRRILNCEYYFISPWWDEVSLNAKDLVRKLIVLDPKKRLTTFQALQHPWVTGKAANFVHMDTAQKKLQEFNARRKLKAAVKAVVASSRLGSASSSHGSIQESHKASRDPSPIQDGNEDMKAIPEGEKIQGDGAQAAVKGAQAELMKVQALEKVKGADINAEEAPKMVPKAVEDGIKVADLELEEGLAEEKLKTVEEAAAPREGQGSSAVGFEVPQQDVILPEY
Description: Inhibition of CAMK4.

Data set [4] has as its target Vascular endothelial growth factor receptor 2 (Homo sapiens, UniProt P35968). Description: Inhibition of KDR.
The target in data set [5] is Interleukin-1 receptor-associated kinase 4 (Homo sapiens, UniProt Q9NWZ3). Description: Inhibition of IRAK4.
Data set [6] deals with T3, Receptor-type tyrosine-protein kinase FLT3 (Homo sapiens, UniProt P36888).
T3 sequence (P36888 whole entry): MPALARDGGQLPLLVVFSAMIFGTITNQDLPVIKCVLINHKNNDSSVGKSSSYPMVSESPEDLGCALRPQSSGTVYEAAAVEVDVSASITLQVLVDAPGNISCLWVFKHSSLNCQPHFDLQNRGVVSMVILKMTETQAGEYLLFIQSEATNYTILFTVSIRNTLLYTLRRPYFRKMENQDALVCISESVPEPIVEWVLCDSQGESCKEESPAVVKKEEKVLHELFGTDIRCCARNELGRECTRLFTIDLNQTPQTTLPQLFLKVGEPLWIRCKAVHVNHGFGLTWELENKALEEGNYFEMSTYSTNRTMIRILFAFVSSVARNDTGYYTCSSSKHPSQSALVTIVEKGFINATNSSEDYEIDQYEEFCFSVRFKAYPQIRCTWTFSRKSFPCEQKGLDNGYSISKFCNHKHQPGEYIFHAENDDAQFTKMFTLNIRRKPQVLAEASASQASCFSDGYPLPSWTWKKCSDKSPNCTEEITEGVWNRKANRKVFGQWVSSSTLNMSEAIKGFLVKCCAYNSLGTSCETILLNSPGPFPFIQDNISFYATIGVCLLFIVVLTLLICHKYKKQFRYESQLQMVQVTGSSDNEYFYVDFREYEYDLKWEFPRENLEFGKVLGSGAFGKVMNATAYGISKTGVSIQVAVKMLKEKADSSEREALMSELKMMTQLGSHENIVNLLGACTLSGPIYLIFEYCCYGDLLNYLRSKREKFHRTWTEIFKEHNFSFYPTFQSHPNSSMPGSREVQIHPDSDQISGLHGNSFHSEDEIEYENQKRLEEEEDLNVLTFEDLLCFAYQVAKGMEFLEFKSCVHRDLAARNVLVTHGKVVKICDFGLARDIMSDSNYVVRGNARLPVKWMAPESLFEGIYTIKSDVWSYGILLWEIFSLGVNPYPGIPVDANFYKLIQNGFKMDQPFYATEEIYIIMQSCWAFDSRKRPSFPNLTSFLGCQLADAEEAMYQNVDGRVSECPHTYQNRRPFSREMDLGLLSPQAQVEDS
The experiment in a line: Inhibition of FLT3.

Data set [7] concerns the target Serine/threonine-protein kinase Chk1 (Homo sapiens, UniProt O14757). Description: Inhibition of CHK1.
Data set [8] can be described thus: Oral bioavailability in cynomolgus monkey at 30 mg/kg. The data set is classed as ADME, organism-based, Macaca fascicularis. The conditions noted are these: in vivo.
Data set [9] can be described thus: AUC (0 to 24 hrs) in cynomolgus monkey at 30 mg/kg, po. Type of data set: ADME, organism-based, Macaca fascicularis. Set-up: time < 24 hr, dose 30 mg/kg, route oral. The following applies: plasma.
Data set [10] can be described thus: AUC (0 to 24 hrs) in cynomolgus monkey at 1 mg/kg, iv. The following applies: plasma. Type of data set: ADME, organism-based, Macaca fascicularis. Set-up: time < 24 hr, dose 1 mg/kg, route intravenous.
Data set [11] can be described thus: AUC (0 to 24 hrs) in Sprague-Dawley rat at 30 mg/kg, po. The data set is classed as ADME, organism-based. Also on record: time < 24 hr, dose 30 mg/kg, route oral. The conditions noted are these: plasma.
Data set [12] is described as follows: Clearance in Sprague-Dawley rat at 10 mg/kg, iv. The following applies: in vivo. The data set is classed as ADME, organism-based. Also on record: dose 10 mg/kg, route intravenous.
The nature of data set [13]: AUC (0 to 24 hrs) in Sprague-Dawley rat at 10 mg/kg, iv. The data set is classed as ADME, organism-based. Set-up: time < 24 hr, dose 10 mg/kg, route intravenous. The conditions noted are these: plasma.
Data set [14] is described as follows: AUC (0 to 24 hrs) in CD1 mouse at 50 mg/kg, po. The following applies: plasma. Also on record: time < 24 hr, dose 50 mg/kg, route oral. The data set is classed as ADME, organism-based.
The nature of data set [15]: Clearance in CD1 mouse at 3 mg/kg, iv. The conditions noted are these: in vivo. Also on record: dose 3 mg/kg, route intravenous. Type of data set: ADME, organism-based.
A short description of data set [16]: AUC (0 to 24 hrs) in CD1 mouse at 3 mg/kg, iv. The following applies: plasma. Type of data set: ADME, organism-based. Set-up: time < 24 hr, dose 3 mg/kg, route intravenous.
Data set [17] in a line: Plasma clearance in rat. Type of data set: ADME, organism-based.
Data set [18] can be described thus: Oral bioavailability in Sprague-Dawley rat at 30 mg/kg. The conditions noted are these: in vivo. The data set is classed as ADME, organism-based.
The nature of data set [19]: AUC (0 to 6 hrs) in rat at 10 mg/kg, po. Type of data set: ADME, organism-based. Set-up: time < 6 hr, dose 10 mg/kg, route oral. The following applies: plasma.
Data set [20] can be described thus: Oral bioavailability in CD1 mouse at 50 mg/kg. Type of data set: ADME, organism-based. The conditions noted are these: in vivo.

SMILES strings stand for the structures.

Sequence of Vascular endothelial growth factor receptor 2 (P35968 whole entry): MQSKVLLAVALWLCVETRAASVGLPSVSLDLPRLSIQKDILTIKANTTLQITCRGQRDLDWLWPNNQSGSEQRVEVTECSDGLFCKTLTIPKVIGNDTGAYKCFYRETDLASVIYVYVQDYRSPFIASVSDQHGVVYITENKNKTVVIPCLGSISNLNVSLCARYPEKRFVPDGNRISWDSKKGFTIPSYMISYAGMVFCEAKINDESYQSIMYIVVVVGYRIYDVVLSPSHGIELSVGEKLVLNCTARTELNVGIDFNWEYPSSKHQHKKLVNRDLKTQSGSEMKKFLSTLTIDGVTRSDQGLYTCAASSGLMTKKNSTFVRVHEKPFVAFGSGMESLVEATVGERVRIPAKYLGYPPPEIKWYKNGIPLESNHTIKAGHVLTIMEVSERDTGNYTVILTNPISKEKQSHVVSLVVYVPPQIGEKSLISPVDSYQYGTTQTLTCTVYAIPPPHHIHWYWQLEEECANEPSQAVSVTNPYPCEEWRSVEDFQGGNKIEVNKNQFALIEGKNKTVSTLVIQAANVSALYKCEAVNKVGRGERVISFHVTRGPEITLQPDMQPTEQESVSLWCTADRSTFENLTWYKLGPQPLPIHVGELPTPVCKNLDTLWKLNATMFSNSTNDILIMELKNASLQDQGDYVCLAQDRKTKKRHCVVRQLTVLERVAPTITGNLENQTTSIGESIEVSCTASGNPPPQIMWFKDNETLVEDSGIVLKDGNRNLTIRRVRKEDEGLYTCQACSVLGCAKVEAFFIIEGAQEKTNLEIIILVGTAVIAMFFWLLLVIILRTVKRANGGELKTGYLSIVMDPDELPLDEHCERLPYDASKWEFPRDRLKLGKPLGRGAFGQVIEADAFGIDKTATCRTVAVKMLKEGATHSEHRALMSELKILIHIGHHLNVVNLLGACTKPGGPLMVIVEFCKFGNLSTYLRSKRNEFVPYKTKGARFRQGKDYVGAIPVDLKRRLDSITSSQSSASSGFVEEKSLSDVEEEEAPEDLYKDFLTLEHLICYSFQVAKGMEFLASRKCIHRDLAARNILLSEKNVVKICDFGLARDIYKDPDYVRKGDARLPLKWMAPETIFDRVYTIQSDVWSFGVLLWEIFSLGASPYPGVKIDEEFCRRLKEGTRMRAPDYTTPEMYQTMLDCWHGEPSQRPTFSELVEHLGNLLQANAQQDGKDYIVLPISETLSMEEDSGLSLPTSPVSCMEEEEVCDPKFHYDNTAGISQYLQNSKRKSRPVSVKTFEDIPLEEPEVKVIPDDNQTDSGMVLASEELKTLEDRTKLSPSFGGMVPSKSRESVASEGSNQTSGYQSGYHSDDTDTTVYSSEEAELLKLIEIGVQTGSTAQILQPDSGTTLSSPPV
Sequence of Rho-associated protein kinase 2 (O75116 whole entry): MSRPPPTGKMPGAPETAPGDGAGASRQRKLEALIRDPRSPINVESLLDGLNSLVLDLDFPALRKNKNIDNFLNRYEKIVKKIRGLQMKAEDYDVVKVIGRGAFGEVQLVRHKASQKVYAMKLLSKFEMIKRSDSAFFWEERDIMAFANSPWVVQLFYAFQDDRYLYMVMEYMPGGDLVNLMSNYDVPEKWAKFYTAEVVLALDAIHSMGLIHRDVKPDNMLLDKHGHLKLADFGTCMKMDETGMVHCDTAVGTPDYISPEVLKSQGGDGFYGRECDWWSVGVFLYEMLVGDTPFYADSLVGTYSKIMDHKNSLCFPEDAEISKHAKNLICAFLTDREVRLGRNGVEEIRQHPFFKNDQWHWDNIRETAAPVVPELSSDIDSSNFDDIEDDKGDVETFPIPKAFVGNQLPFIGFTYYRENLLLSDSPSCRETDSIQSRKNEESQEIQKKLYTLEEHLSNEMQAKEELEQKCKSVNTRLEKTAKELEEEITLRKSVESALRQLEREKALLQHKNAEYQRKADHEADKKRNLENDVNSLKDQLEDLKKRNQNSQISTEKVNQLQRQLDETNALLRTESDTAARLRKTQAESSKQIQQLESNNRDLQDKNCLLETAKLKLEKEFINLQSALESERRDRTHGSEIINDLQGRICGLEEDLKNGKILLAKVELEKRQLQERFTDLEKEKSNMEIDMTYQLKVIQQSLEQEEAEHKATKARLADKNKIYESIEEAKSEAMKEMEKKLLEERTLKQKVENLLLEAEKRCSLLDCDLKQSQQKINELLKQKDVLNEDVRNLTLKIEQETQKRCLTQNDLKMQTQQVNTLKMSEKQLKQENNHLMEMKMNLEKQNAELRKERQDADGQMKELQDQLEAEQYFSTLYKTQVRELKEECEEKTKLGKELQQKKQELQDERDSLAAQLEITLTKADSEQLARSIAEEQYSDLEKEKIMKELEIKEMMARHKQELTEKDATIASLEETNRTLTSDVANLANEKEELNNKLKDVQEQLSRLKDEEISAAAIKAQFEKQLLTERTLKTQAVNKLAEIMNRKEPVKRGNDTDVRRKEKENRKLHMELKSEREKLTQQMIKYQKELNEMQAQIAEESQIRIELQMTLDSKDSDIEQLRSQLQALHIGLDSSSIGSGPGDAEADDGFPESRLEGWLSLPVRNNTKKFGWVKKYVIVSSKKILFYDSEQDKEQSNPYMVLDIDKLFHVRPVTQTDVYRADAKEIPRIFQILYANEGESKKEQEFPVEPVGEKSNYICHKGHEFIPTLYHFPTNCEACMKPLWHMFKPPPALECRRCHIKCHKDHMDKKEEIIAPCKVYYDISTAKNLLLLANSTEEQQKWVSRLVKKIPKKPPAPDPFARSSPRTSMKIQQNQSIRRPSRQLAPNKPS
Sequence of Aurora kinase B (Q96GD4 whole entry): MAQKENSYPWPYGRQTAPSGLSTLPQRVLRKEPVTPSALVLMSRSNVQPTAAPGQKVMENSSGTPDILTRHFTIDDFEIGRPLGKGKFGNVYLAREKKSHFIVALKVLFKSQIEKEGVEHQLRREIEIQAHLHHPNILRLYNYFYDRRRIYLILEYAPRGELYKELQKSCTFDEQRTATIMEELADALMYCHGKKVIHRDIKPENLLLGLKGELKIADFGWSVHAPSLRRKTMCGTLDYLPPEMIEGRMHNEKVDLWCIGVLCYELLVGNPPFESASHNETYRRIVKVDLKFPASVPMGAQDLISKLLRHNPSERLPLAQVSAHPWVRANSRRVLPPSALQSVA
Sequence of Serine/threonine-protein kinase Chk1 (O14757 whole entry): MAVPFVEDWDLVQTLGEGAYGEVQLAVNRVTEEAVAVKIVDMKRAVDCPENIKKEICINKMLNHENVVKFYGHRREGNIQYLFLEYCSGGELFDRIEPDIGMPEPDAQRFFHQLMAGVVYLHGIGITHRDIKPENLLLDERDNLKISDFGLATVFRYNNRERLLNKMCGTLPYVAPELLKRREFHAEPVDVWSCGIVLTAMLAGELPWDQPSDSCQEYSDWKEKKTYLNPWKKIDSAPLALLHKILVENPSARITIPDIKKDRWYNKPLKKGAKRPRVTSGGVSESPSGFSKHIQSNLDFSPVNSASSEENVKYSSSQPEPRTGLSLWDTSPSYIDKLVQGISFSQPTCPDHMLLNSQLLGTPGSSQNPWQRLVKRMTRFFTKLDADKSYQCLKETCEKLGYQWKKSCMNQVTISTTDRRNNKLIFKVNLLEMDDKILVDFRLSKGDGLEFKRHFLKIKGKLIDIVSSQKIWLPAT
Sequence of Interleukin-1 receptor-associated kinase 4 (Q9NWZ3 whole entry): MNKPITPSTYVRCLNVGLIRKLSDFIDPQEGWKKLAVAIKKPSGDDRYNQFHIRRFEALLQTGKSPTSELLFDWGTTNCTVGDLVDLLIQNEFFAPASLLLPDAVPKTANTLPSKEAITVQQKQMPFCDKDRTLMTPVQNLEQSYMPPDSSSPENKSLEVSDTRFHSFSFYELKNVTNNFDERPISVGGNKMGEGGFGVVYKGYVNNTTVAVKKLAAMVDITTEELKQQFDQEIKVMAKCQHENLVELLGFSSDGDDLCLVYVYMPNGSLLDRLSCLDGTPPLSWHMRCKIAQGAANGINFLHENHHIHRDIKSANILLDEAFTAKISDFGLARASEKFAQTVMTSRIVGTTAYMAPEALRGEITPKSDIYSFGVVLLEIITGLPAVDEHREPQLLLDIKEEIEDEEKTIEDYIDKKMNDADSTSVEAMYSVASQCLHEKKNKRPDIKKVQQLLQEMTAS

The IC50 is the point on the concentration scale where inhibition reaches its midpoint. In general, bioavailability refers to the share of a dose that reaches the circulation, judged against a reference dose that is usually intravenous. One may read the AUC(0-t) as exposure summed from dosing to a finite time, without extrapolation to infinity. The clearance is a measure of how efficiently the substance is removed, as volume per time. With `Cl.[2H]C([2H])(c1cc(Nc2nc(C)cn3c(-c4cn[nH]c4)cnc23)sn1)N1CCC(F)(F)C1`, the IC50 is at most 13 nM against Aurora kinase B; over 100 nM in [1]; over 100 nM in data set [2]; over 100 nM in data set [3]; 340 nM in [4]; 640 nM in data set [5]. The IC50 in data set [6] came to 46 nM; in [7] it was 200 nM. In addition, the bioavailability in data set [8] stood at 2%; in [18], 33%; in data set [20], 37%. Also, the AUC(0-t) at 24 h came to 5.1 µM·h in [9]; 9.5 µM·h in data set [10]; 62.1 µM·h in data set [11]; 63.3 µM·h in [13]; 35.9 µM·h in data set [14]; 5.9 µM·h in [16]. For the same compound, the clearance was found to be 6.3 mL/min/kg in [12], 20.3 mL/min/kg in [15] and 6.3 mL/min/kg in data set [17]. Besides, the AUC(0-t) at 6 h in [19] came to 4.73 µM·h.

Regarding `Cc1cn2c(-c3cn[nH]c3)cnc2c(Nc2cc(CN3CCC(F)(F)C3)ns2)n1.Cl`, the IC50 on Aurora kinase B was at most 13 nM; in data set [1] it was over 100 nM; in data set [2] it was over 100 nM; in data set [3], over 100 nM; in data set [4] it was 550 nM; in data set [5], 1000 nM. The IC50 in data set [6] came to 76 nM; in data set [7], 640 nM. Besides, the bioavailability in data set [8] was found to be 2%; in data set [18], 19%; in data set [20], 60%. Besides, the AUC(0-t) at 24 h in data set [9] came out at 1.7 µM·h; in [11], 6.9 µM·h; in [13], 12.2 µM·h; in [14], 9.4 µM·h; in data set [16], 0.9 µM·h. For the same compound, the clearance in data set [12] turned out to be 33 mL/min/kg; in data set [15] it was 127 mL/min/kg; in data set [17] it was 33 mL/min/kg. For the same compound, in [19], the AUC(0-t) at 6 h turned out to be 1.61 µM·h.

Consider `CCN(Cc1cc(Nc2nc(C)cn3c(-c4cn[nH]c4)cnc23)sn1)C(C)(C)CO`, for which the IC50 against Aurora kinase B is at most 13 nM; in data set [1], over 100 nM; in [2], over 100 nM; in [3] it was over 100 nM; in data set [4], under 1 nM; in data set [6] it was 5 nM.

Values taken from ChEMBL document CHEMBL1649074, “Aurora kinase inhibitors based on the imidazo[1,2-a]pyrazine core: fluorine and deuterium incorporation improve oral absorption and exposure” (J Med Chem, 2011).
